Test [1] addresses Fibroblast growth factor receptor 1 (Homo sapiens) (UniProt P11362). As to the kind of experiment: Inhibition of human FGFR1 catalytic domain expressed in baculovirus assessed as substrate phosphorylation using fluorescence-labelled peptides as substrate at 8 uM after 90 mins by microfluidic peptide phosphorylation assay.
The target of test [2] is T1, Serine/threonine-protein kinase Sgk2 (Homo sapiens) (UniProt Q9HBY8).
T1 sequence (whole entry): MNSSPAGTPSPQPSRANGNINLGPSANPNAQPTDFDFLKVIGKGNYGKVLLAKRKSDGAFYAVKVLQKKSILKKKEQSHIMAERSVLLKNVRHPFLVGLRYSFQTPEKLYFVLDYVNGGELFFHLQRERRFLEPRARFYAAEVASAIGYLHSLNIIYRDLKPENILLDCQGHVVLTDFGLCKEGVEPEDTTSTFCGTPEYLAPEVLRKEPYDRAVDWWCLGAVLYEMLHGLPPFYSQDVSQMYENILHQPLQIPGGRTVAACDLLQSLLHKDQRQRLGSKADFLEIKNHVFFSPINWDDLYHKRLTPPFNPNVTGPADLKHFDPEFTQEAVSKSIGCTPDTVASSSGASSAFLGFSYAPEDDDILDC
The test is described as follows: Inhibition of human full length SGK2 expressed in baculovirus assessed as substrate phosphorylation using fluorescence-labelled peptides as substrate at 420 uM after 90 mins by microfluidic peptide phosphorylation assay.

The target in test [3] is Insulin-like growth factor 1 receptor (Homo sapiens) (UniProt P08069). As to the kind of experiment: Inhibition of human IGF1R catalytic domain expressed in baculovirus assessed as substrate phosphorylation using fluorescence-labelled peptides as substrate at 420 uM after 90 mins by microfluidic peptide phosphorylation assay.
Test [4] deals with Protein kinase C alpha type (Homo sapiens) (UniProt P17252). The note with it: 0.1 uM.
Description: Inhibition of human truncated PKC alpha expressed in baculovirus assessed as substrate phosphorylation using fluorescence-labelled peptides as substrate at 0.1 uM after 90 mins by microfluidic peptide phosphorylation assay
Test [5] has as its target MAP kinase p38 (Homo sapiens) (UniProt O15264+Q15759+Q16539+P53778). The test is described as follows: Inhibition of human full length p38 beta2 expressed in Escherichia coli cell assessed as substrate phosphorylation using fluorescence-labelled peptides as substrate at 70 uM after 90 mins by microfluidic peptide phosphorylation assay.
Test [6] deals with T2, Serine/threonine-protein kinase Sgk1 (Homo sapiens) (UniProt O00141).
T2 sequence (whole entry): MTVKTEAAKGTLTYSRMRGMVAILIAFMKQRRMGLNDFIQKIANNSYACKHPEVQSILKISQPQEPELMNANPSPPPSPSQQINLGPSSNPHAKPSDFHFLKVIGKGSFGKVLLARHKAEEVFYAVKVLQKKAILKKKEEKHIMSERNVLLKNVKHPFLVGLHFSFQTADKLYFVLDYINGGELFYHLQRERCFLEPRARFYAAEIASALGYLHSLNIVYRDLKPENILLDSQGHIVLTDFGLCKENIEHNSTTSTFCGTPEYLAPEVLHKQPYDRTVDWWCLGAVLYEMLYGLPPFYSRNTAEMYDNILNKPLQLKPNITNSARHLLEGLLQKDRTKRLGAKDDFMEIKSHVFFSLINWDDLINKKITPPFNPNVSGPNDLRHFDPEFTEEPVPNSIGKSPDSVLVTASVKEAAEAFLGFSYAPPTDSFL
The test is described as follows: Inhibition of human truncated SGK1 expressed in baculovirus assessed as substrate phosphorylation using fluorescence-labelled peptides as substrate at 95 uM after 90 mins by microfluidic peptide phosphorylation assay.

Test [7] concerns the target T3, MAP kinase-activated protein kinase 5 (Homo sapiens) (UniProt Q8IW41).
T3 sequence (whole entry): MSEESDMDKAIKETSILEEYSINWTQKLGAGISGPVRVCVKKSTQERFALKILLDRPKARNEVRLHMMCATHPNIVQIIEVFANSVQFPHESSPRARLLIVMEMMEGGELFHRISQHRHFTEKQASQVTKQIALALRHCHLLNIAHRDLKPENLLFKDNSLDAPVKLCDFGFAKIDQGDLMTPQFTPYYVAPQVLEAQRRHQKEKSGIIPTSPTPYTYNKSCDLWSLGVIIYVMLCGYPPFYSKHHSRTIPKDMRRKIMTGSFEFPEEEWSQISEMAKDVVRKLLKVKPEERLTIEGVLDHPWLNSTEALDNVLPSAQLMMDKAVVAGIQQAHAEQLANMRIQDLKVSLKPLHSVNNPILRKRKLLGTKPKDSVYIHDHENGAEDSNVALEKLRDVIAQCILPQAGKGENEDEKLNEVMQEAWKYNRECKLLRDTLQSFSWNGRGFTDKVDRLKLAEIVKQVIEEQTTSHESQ
The test is described as follows: Inhibition of human full length PRAK expressed in baculovirus assessed as substrate phosphorylation using fluorescence-labelled peptides as substrate at 1000 uM after 90 mins by microfluidic peptide phosphorylation assay.

Test [8] addresses T4, Interleukin-1 receptor-associated kinase 4 (Homo sapiens) (UniProt Q9NWZ3).
T4 sequence (whole entry): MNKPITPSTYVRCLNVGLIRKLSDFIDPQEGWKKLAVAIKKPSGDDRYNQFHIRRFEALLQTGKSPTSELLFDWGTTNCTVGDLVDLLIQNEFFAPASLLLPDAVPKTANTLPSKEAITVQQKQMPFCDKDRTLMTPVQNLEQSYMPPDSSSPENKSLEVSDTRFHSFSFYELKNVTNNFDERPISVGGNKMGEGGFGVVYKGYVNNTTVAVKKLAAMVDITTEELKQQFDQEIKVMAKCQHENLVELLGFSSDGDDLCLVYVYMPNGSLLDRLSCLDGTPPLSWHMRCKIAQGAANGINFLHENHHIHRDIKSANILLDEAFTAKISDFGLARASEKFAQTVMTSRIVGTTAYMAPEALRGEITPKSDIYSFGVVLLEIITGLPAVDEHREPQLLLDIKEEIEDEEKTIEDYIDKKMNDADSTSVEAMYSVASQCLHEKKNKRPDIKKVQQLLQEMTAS
The test is described as follows: Inhibition of human IRAK4 catalytic domain expressed in baculovirus assessed as substrate phosphorylation using fluorescence-labelled peptides as substrate at 1000 uM after 90 mins by microfluidic peptide phosphorylation assay.

Sequence of Fibroblast growth factor receptor 1 (Homo sapiens) (P11362 22-822 limits assumed): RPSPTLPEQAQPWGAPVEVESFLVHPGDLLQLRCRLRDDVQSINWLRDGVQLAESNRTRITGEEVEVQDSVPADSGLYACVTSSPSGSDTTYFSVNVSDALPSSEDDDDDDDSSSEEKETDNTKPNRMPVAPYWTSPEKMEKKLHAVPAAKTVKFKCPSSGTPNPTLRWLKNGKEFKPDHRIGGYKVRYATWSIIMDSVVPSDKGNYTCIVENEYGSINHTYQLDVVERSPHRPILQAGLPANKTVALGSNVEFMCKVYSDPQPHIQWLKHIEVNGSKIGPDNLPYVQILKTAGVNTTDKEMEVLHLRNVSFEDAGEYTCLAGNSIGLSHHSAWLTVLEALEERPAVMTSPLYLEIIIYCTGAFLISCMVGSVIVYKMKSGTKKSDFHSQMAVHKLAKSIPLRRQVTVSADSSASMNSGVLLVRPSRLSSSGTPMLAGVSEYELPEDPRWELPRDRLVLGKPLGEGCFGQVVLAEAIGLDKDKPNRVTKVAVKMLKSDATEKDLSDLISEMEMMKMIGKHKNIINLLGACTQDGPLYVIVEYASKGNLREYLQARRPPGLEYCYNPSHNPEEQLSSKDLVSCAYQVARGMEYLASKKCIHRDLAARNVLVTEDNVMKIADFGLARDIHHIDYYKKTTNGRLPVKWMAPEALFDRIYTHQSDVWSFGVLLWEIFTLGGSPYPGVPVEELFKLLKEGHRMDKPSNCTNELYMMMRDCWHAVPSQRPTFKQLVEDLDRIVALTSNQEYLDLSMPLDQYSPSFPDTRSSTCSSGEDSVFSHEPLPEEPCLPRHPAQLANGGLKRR

For the molecule `NCC1CCN(c2ncnc3[nH]ccc23)CC1`, the inhibition in test [1] came to 36.5%. `c1nc(N2CCOCC2)c2nc[nH]c2n1`: the values for the inhibition in test [2] and in test [3] were 76.5% and 15%, respectively. The molecule `C[C@H](CN(C)C)Oc1nc(Nc2cc3cccc(Cl)c3cn2)cnc1C#N` displayed an inhibition in test [4] of 0%.

For the molecule `CNCc1ccc(-c2ncnc3[nH]cnc23)cc1`, the inhibition in test [5] came to 1.5%.

As for `NCCc1ccc(-c2ncnc3[nH]cnc23)cc1`, the inhibition in test [6] came to 52.5%.

With `c1cnc2[nH]ccc2c1`, the inhibition in test [7] is 77%; in test [8], 65%.

For the origin of these results see ChEMBL document CHEMBL3132769, “Fragment growing to retain or alter the selectivity of anchored kinase hinge-binding fragments” (Medchemcomm, 2014).
